Source: patent US4238491A (priority 1977, dated 1980)
Structures can show the parent of a compound that is named as a salt. Where two headings read alike, the source gives them in different places.

Legend:
blood pressure of SHR = assay: Antihypertensive effect by single administration, SHR, direct cannulation; type: in vivo, rat (spontaneously hypertensive rats; conditions: for Rate of Effects (relative to MR): from DB20; for ED (20% blood pressure decrease): Rattus norvegicus, read-out: DB20 (20% blood pressure descending dose)
Protocol: The effect was examined through both direct and modified tail-cuff methods using male SHRs aged 25 to 30 weeks and weighing about 300 g.
In the direct cannulation method, polyethylene cannules were inserted in femoral arteries of the conscious unanesthesized SHRs under back-fixation,and MR solution was administered in an amount of 0.1 mg/100 g of weight for venous injection, and 1 ml/100 g of weight for oral administration. Changes in the blood pressure over 6 hours were measured with a multi-purpose polygraph RM-85 made by NIHON KODEN Co., Ltd. MR was dissolved in 0.9% NaCl aqueous solution with 1 N-HCl, and the solution was neutralized for use.

hypertension = conditions: cited from earlier work; for antihypertensive effect / side effects: remedies for hypertension
rats = conditions: in connection with RCN; cited from earlier work
[1] = converted from FIG. 15 data to 20 mg/kg basis
Protocol: Blood was drawn from branchial vein of dogs, vein of ear of rabbits and carotic artery of rats after slaughter. Urine was collected with urine bladder catheter for rabbits and metabolic cages for rats. Gathering bile was performed with biliary duct cannulation without anesthesia.

in vivo = type: in vivo, rat (SD (SPF)); conditions: rat, in vivo; oral sub-acute, rats; read-out: ineffective dose
Protocol: All the rats were observed daily and general symptoms noted. Weight was measured daily, average food-intake once every three days, and average water-intake once every two days.

| Structure (SMILES) | Rate of Effects (relative to MR) (blood pressure of SHR; I.V.) | Rate of Effects (relative to MR) (blood pressure of SHR; P.O.) | ED (20% blood pressure decrease) (blood pressure of SHR; iv) | ED (20% blood pressure decrease) (blood pressure of SHR; po) | further results |
| --- | --- | --- | --- | --- | --- |
| C[C@](N)(Cc1ccc(O)c(O)c1)C(=O)O [L-alpha-methyl-dopa] | 0.01 | 0.01 | – | – | ED (20% blood pressure decrease) (blood pressure of SHR; iv, I.V.): 303 mg/kg; ED (20% blood pressure decrease) (blood pressure of SHR; po, P.O.): 1740 mg/kg |
| NNc1nncc2ccccc12 [Hydralazine hydrochloride] | 11.7 | 1.85 | 0.3 mg/kg | 6.4 mg/kg | – |
| C[N+](C)(C)CCCCCC[N+](C)(C)C [Hexamethonium chloride] | 0.08 | 0.04 | 39.7 mg/kg | 320 mg/kg | – |
| NS(=O)(=O)c1cc2c(cc1Cl)NC(C(Cl)Cl)NS2(=O)=O (stereo not shown) [Trichlormethiazide] | 0.05 | 0.07 | – | – | ED (20% blood pressure decrease) (blood pressure of SHR; iv, I.V.): 79.8 mg/kg; ED (20% blood pressure decrease) (blood pressure of SHR; po, P.O.): 150 mg/kg |
| COc1cc2[nH]c3c(c2cc1OC)CCN1C[C@H]2[C@H](C)OC=C(C(=O)OCCN(C)C)[C@H]2C[C@H]31.Cl.Cl [Dimethylaminoethyl reserpilinate dihydrochloride] | 0.01 | 0.02 | – | – | DB20 (20% blood pressure descending dose) (blood pressure of SHR; I.V.): 415.7 mg/kg; DB20 (20% blood pressure descending dose) (blood pressure of SHR; P.O.): 625.2 mg/kg |
| COC(=O)[C@H]1[C@H]2C[C@@H]3c4[nH]c5cc(OC)ccc5c4CCN3C[C@H]2C[C@@H](OC(=O)c2cc(OC)c(OC)c(OC)c2)[C@@H]1OC [RSP, Reserpine] | 17.7 | 3.11 | 0.2 mg/kg | 3.8 mg/kg | antihypertensive effect (hypertension): prolonged antihypertensive effect; side effects (hypertension): uneasiness due to central nervous system depression, depressed state and loss of vitality |
| COC(=O)[C@H]1[C@H]2C[C@@H]3c4[nH]c5cc(OC)ccc5c4CCN3C[C@H]2C[C@@H](OC(=O)/C=C/c2cc(OC)c(OC)c(OC)c2)[C@@H]1OC [RCN, Rescinnamin] | – | – | 1.3 mg/kg | 9.7 mg/kg | pathological changes in adrenal and liver (rats): not reported; antihypertensive effect (hypertension): prolonged antihypertensive effect; side effects (hypertension): uneasiness due to central nervous system depression, depressed state and loss of vitality; pathological change of stomach mucous (hypertension; when RCN is used): often occurs; Area under the Curve of MR Content in Serum [1]: 20.2; NOAEL (in vivo): 6 mg/kg |
